The text below walks through data of patent US20230416330A1, “Optimized GIP Peptide Analogues” (Antag Therapeutics ApS, priority 2019, published 2023).

Data set [1] can be described thus: Physical stability: fibril formation in Thioflavin T (ThT) assay with agitation. It counts as physicochemical. Conditions: for Avr lag time / Avr lag time (h): 25° C., agitation. Here is the method: Continuous measurement of the fluorescence emission at 486 nm can be used as a measure of fibrillation behavior of peptides and proteins. The time until onset of fibrillation or fibrillation lag time is estimated here by defining the lag time (Tlag) as the point in time where the signal relative to the pre-transition baseline has reached 10% of the post-transition baseline.
50 mM sodium phosphate buffer for dissolving some samples was prepared in ultrapure water (Milli-Q® Reference A+ System, Merck) with a resistivity of 18.2 MΩ·cm. The buffer was adjusted to pH 7.4 and filtered.
The ultrapure water (MilliQ) for dissolving some samples was adjusted to pH 7.4 with NaOH and filtered prior to sample preparation.
(§1) Peptides were either dissolved in sodium phosphate buffer (50 mM, pH 7.4, filtered) or dissolved in ultrapure (MilliQ) water (adjusted to pH 7.4 with NaOH, filtered) (see Table 3). All peptide samples were prepared to a concentration of 1, 5, 7.5 or 15 mg/ml. All samples, with the exception of reference peptides GIP(3-30), AT158, and AT482 dissolved readily and produced clear and colorless solutions with gentle mixing. Peptide samples were subsequently filtered through 0.22 μm nylon filters (Q-Max® RR syringe filter, 13 mm, Frisenette, DK) to produce particle-free solutions. All samples were added to a 96-well plate reader for the ThT assay at t=0.
For each sample, […] ThT (1 mM) was added to 1.2 mL peptide solution. From this sample mixture, an amount of 200 uL/well was pipetted into four or five wells (n=4 or 5). Blank samples (buffer+ThT) were also included. One 3 mm silica bead was added to each well containing samples and the plate was subjected to orbital rotation at 300 rpm to agitate and stress the samples. The temperature was kept at 25° C. throughout the measurement.

A short description of data set [2]: Solubility by visual inspection of peptide solutions. The format is physicochemical. Here is the method: as §1
Clear visual appearance may be taken as an indicator of the immediate solubility of the peptide. […] Thus, A13Aib and/or N24E substitutions appear to increase solubility.

Starred links: 1 amine or outer side, 2 acyl side, 3 side chain; linkers in the order of their positions; H or OH if unused. Non-standard residues stand in square brackets, D forms with d. Residues, ends and D or L forms follow the SMILES beside them. Groups on a side chain read outwards from the residue. *: point of attachment. C18 diacid = O=C(O)CCCCCCCCCCCCCCCCC(=O)*; C16 diacid = O=C(O)CCCCCCCCCCCCCCC(=O)*; γGlu = O=C(O)[C@H](CCC(=O)[*:2])N[*:1]; Glutaryl = O=C(CCCC(=O)[*:2])[*:1]; Palmitoyl = CCCCCCCCCCCCCCCC(=O)*; Nle = CCCC[C@H](N)C(=O)O; AEEA = NCCOCCOCC(=O)O; Aib = CC(C)(N)C(=O)O Where only a bound is given, the exact number is not on record here.

In the case of `CC[C@H](C)[C@H](NC(=O)[C@H](CO)NC(=O)[C@H](Cc1ccc(O)cc1)NC(=O)[C@H](CC(=O)O)NC(=O)[C@H](CO)NC(=O)[C@@H](NC(=O)[C@H](Cc1ccccc1)NC(=O)[C@@H](NC(=O)CNC(=O)[C@@H](N)CCC(=O)O)[C@@H](C)O)[C@@H](C)CC)C(=O)N[C@@H](C)C(=O)N[C@@H](CCSC)C(=O)N[C@@H](CC(=O)O)C(=O)N[C@@H](CCCCN)C(=O)N[C@H](C(=O)N[C@@H](CCCCNC(=O)CCCCCCCCCCCCCCC(=O)O)C(=O)N[C@@H](CCC(N)=O)C(=O)N[C@@H](CCC(N)=O)C(=O)N[C@@H](CC(=O)O)C(=O)N[C@@H](Cc1ccccc1)C(=O)N[C@H](C(=O)N[C@@H](CC(N)=O)C(=O)N[C@@H](Cc1c[nH]c2ccccc12)C(=O)N[C@@H](CC(C)C)C(=O)N[C@@H](CC(C)C)C(=O)N[C@@H](C)C(=O)N[C@@H](CCC(N)=O)C(=O)N[C@@H](CCCCN)C(=O)N1CCC[C@H]1C(=O)N[C@@H](CO)C(=O)N[C@@H](CO)C(=O)NCC(=O)N[C@@H](C)C(=O)N1CCC[C@H]1C(=O)N1CCC[C@H]1C(=O)N1CCC[C@H]1C(=O)N[C@@H](CO)C(=O)O)C(C)C)[C@@H](C)CC` [AT364, GIP(3-30) [H18K] C16diacid+Cex(31-39), reference compound] (H-EGTFISDYSIAMDKIK(C16 diacid)QQDFVNWLLAQKPSSGAPPPS-OH; N-terminus assumed), the “Avr lag time” value in data set [1] (1 mg/ml, TFA, Phosphate (7.4)) is <18 h; in data set [1] (5 mg/ml, Na, MilliQ), 20 to 50 h; in data set [1] (5 mg/ml, TFA, MilliQ (8)) it was <18 h; in data set [1] (5 mg/ml, TFA, Phosphate) it was <18 h. The “Fibril formation (FIG. 1)” value in data set [1] (in phosphate buffer, about 94 h, orbital rotation) is “forms fibrils”. In addition, the Visual appearance entry is “Clear” in data set [2] (1 mg/ml, CI, Phosphate (7.4)); “Clear” in data set [2] (1 mg/ml, Na, MilliQ); “Clear” in data set [2] (1 mg/ml, TFA, Phosphate (7.4)); “Clear” in data set [2] (5 mg/ml, Na, MilliQ); “Clear” in data set [2] (5 mg/ml, TFA, MilliQ (8)); “Clear” in data set [2] (5 mg/ml, TFA, Phosphate). In addition, the Visual appearance entry in data set [2] (7.5 mg/ml, Na, MilliQ (8)) was “Clear”; in data set [2] (15 mg/ml, Na, MilliQ (8)) it was “Clear”.

For the compound `CC[C@H](C)[C@H](NC(=O)[C@H](CO)NC(=O)[C@H](Cc1ccc(O)cc1)NC(=O)[C@H](CC(=O)O)NC(=O)[C@H](CO)NC(=O)[C@@H](NC(=O)[C@H](Cc1ccccc1)NC(=O)[C@@H](NC(=O)CNC(=O)[C@@H](N)CCC(=O)O)[C@@H](C)O)[C@@H](C)CC)C(=O)N[C@@H](C)C(=O)N[C@@H](CCSC)C(=O)N[C@@H](CC(=O)O)C(=O)N[C@@H](CCCCN)C(=O)N[C@H](C(=O)N[C@@H](Cc1c[nH]cn1)C(=O)N[C@@H](CCC(N)=O)C(=O)N[C@@H](CCC(N)=O)C(=O)N[C@@H](CC(=O)O)C(=O)N[C@@H](Cc1ccccc1)C(=O)N[C@H](C(=O)N[C@@H](CCC(=O)O)C(=O)N[C@@H](Cc1c[nH]c2ccccc12)C(=O)N[C@@H](CC(C)C)C(=O)N[C@@H](CC(C)C)C(=O)N[C@@H](C)C(=O)N[C@@H](CCC(N)=O)C(=O)N[C@@H](CCCCN)C(=O)N1CCC[C@H]1C(=O)N[C@@H](CO)C(=O)N[C@@H](CO)C(=O)NCC(=O)N[C@@H](C)C(=O)N1CCC[C@H]1C(=O)N1CCC[C@H]1C(=O)N1CCC[C@H]1C(=O)N[C@@H](CO)C(=O)N[C@@H](CCCCNC(=O)CCCCCCCCCCCCCCC(=O)O)C(=O)O)C(C)C)[C@@H](C)CC` [AT744] (H-EGTFISDYSIAMDKIHQQDFVEWLLAQKPSSGAPPPSK(C16 diacid)-OH; N-terminus assumed), in data set [1] (1 mg/ml, TFA, Phosphate (7.4)), the “Avr lag time (h)” value was “fnd (Fnd = fibrils not detected within experiment time (96 hours) with agitation.)”. Besides, in data set [2] (1 mg/ml, TFA, Phosphate (7.4)), the Visual appearance result is “Clear”.

Turning to `CCCCCCCCCCCCCCCC(=O)NCCCC[C@H](NC(=O)[C@@H](NC(=O)[C@H](CCCCN)NC(=O)[C@H](CC(=O)O)NC(=O)[C@H](CCSC)NC(=O)[C@H](C)NC(=O)[C@@H](NC(=O)[C@H](CO)NC(=O)[C@H](Cc1ccc(O)cc1)NC(=O)[C@H](CC(=O)O)NC(=O)[C@H](CO)NC(=O)[C@@H](NC(=O)[C@H](Cc1ccccc1)NC(=O)[C@@H](NC(=O)CNC(=O)[C@@H](N)CCC(=O)O)[C@@H](C)O)[C@@H](C)CC)[C@@H](C)CC)[C@@H](C)CC)C(=O)N[C@@H](CCC(N)=O)C(=O)N[C@@H](CCC(N)=O)C(=O)N[C@@H](CC(=O)O)C(=O)N[C@@H](Cc1ccccc1)C(=O)N[C@H](C(=O)N[C@@H](CCC(=O)O)C(=O)N[C@@H](Cc1c[nH]c2ccccc12)C(=O)N[C@@H](CC(C)C)C(=O)N[C@@H](CC(C)C)C(=O)N[C@@H](C)C(=O)N[C@@H](CCC(N)=O)C(=O)N[C@@H](CCCCN)C(=O)N1CCC[C@H]1C(=O)N[C@@H](CO)C(=O)N[C@@H](CO)C(=O)NCC(=O)N[C@@H](C)C(=O)N1CCC[C@H]1C(=O)N1CCC[C@H]1C(=O)N1CCC[C@H]1C(=O)N[C@@H](CO)C(=O)O)C(C)C` [AT751] (H-EGTFISDYSIAMDKIK(Palmitoyl)QQDFVEWLLAQKPSSGAPPPS-OH; N-terminus assumed), the “Avr lag time” value in data set [1] (1 mg/ml, TFA, Phosphate (7.4)) is given as <24 h. Also, in data set [2] (1 mg/ml, TFA, Phosphate (7.4)), the Visual appearance entry is given as “Clear”.

Turning to `CC[C@H](C)[C@H](NC(=O)[C@H](CCCCN)NC(=O)[C@H](CCC(=O)O)NC(=O)[C@H](CC(C)C)NC(=O)C(C)(C)NC(=O)[C@@H](NC(=O)[C@H](CO)NC(=O)[C@H](Cc1ccc(O)cc1)NC(=O)[C@H](CCC(=O)O)NC(=O)[C@H](CO)NC(=O)[C@@H](NC(=O)[C@H](Cc1ccccc1)NC(=O)[C@@H](NC(=O)CNC(=O)CCCC(=O)O)[C@@H](C)O)[C@@H](C)CC)[C@@H](C)CC)C(=O)N[C@@H](CCCCNC(=O)CCCCCCCCCCCCCCC(=O)O)C(=O)N[C@@H](CCC(N)=O)C(=O)N[C@@H](CCC(N)=O)C(=O)N[C@@H](CCC(=O)O)C(=O)N[C@@H](Cc1ccccc1)C(=O)N[C@H](C(=O)N[C@@H](CCC(=O)O)C(=O)N[C@@H](Cc1c[nH]c2ccccc12)C(=O)N[C@@H](CC(C)C)C(=O)N[C@@H](CC(C)C)C(=O)N[C@@H](C)C(=O)N[C@@H](CCC(N)=O)C(=O)N[C@@H](CCCCN)C(=O)N1CCC[C@H]1C(=O)N[C@@H](CO)C(=O)N[C@@H](CO)C(=O)NCC(=O)N[C@@H](C)C(=O)N1CCC[C@H]1C(=O)N1CCC[C@H]1C(=O)N1CCC[C@H]1C(=O)N[C@@H](CO)C(=O)O)C(C)C` [AT717] (Glutaryl-GTFISEYSI[Aib]LEKIK(C16 diacid)QQEFVEWLLAQKPSSGAPPPS-OH), the “Avr lag time (h)” value is “fnd (Fnd = fibrils not detected within experiment time (96 hours) with agitation.)” in data set [1] (1 mg/ml, TFA, Phosphate (7.4)); “fnd (Fnd = fibrils not detected within experiment time (96 hours) with agitation.)” in data set [1] (7.5 mg/ml, Na, MilliQ (8)); “fnd (Fnd = fibrils not detected within experiment time (96 hours) with agitation.)” in data set [1] (15 mg/ml, Na, MilliQ (8)). The Visual appearance result was “Clear” in data set [2] (1 mg/ml, TFA, Phosphate (7.4)); “Clear” in data set [2] (7.5 mg/ml, Na, MilliQ (8)); “Clear” in data set [2] (15 mg/ml, Na, MilliQ (8)).

Turning to `CCCC[C@H](NC(=O)C(C)(C)NC(=O)[C@@H](NC(=O)[C@H](CO)NC(=O)[C@H](Cc1ccc(O)cc1)NC(=O)[C@H](CCC(=O)O)NC(=O)[C@H](CO)NC(=O)[C@@H](NC(=O)[C@H](Cc1ccccc1)NC(=O)[C@@H](NC(=O)CNC(=O)CCCC(=O)O)[C@@H](C)O)[C@@H](C)CC)[C@@H](C)CC)C(=O)N[C@@H](CCC(=O)O)C(=O)N[C@@H](CCCCN)C(=O)N[C@H](C(=O)N[C@@H](CCCCNC(=O)COCCOCCNC(=O)COCCOCCNC(=O)CC[C@H](NC(=O)CCCCCCCCCCCCCCCCC(=O)O)C(=O)O)C(=O)N[C@@H](CCC(N)=O)C(=O)N[C@@H](CCC(N)=O)C(=O)N[C@@H](CCC(=O)O)C(=O)N[C@@H](Cc1ccccc1)C(=O)N[C@H](C(=O)N[C@@H](CCC(=O)O)C(=O)N[C@@H](Cc1c[nH]c2ccccc12)C(=O)N[C@@H](CC(C)C)C(=O)N[C@@H](CC(C)C)C(=O)N[C@@H](C)C(=O)N[C@@H](CCC(N)=O)C(=O)N[C@@H](CCCCN)C(=O)N1CCC[C@H]1C(=O)N[C@@H](CO)C(=O)N[C@@H](CO)C(=O)NCC(=O)N[C@@H](C)C(=O)N1CCC[C@H]1C(=O)N1CCC[C@H]1C(=O)N1CCC[C@H]1C(=O)N[C@@H](CO)C(=O)O)C(C)C)[C@@H](C)CC` [AT706] (Glutaryl-GTFISEYSI[Aib][Nle]EKIK([AEEA-AEEA-γGlu-C18 diacid])QQEFVEWLLAQKPSSGAPPPS-OH), the “Avr lag time (h)” value is on record as “fnd (Fnd = fibrils not detected within experiment time (96 hours) with agitation.)” in data set [1] (1 mg/ml, TFA, Phosphate (7.4)); “fnd (Fnd = fibrils not detected within experiment time (96 hours) with agitation.)” in data set [1] (7.5 mg/ml, Na, MilliQ (8)); “fnd (Fnd = fibrils not detected within experiment time (96 hours) with agitation.)” in data set [1] (15 mg/ml, Na, MilliQ (8)). Further, the Visual appearance entry in data set [2] (1 mg/ml, TFA, Phosphate (7.4)) is “Clear”; in data set [2] (7.5 mg/ml, Na, MilliQ (8)) it was “Clear”; in data set [2] (15 mg/ml, Na, MilliQ (8)), “Clear”.
